Six compounds from ChEMBL document CHEMBL1149031, “New bioactive taxoids from cell cultures of Taxus baccata” (1994) can be followed below.

Structures are written as SMILES.

Experiment [1] is filed under the species Bos taurus. In words: Ratio of compound ED50 to taxol ED50 for bovine brain tubulin assembly at 1 mg/ml of tubulin concentration.
Experiment [2] is filed under the species Bos taurus. As to the kind of experiment: Ratio of compound ED50 to taxol ED50 for bovine brain tubulin assembly at 1.5 mg/ml of tubulin concentration.
For experiment [3], the species on record is Bos taurus. In words: Induction of bovine brain tubulin assembly at 1 mg/ml of tubulin concentration.
Experiment [4] is filed under the species Bos taurus. In words: Induction of bovine brain tubulin assembly at 1.5 mg/ml of tubulin concentration.
The next experiment relates to SF-539. As to the kind of experiment: Cytotoxicity against human SF539 cells. The format is functional.
The next experiment deals with SNB-75. As to the kind of experiment: Cytotoxicity against human SNB75 cells. It counts as functional. As to conditions: for CC50: read-out: LC50 (the source's name).
In the next experiment the test system is HOP-62. As to the kind of experiment: Cytotoxicity against human HOP62 cells. The format is functional.
The subject of another experiment is NCI-H460. As to the kind of experiment: Cytotoxicity against human NCI-H460 cells. It counts as functional.
The next experiment has as its system COLO 205. As to the kind of experiment: Cytotoxicity against human COLO205 cells. The format is functional. Conditions: for CC50: read-out: LC50 (the source's name).
A further experiment has as its system DMS-114. In words: Cytotoxicity against human DMS114 cells. The format is functional. Conditions: for CC50: read-out: LC50 (the source's name).
The next experiment deals with OVCAR-3. In words: Cytotoxicity against human OVCAR-3 cells. The format is functional.

For `C/C=C(\C)C(=O)N[C@@H](c1ccccc1)[C@@H](O)C(=O)O[C@H]1C[C@@]2(O)[C@@H](OC(=O)c3ccccc3)[C@@H]3[C@]4(OC(C)=O)CO[C@@H]4C[C@H](O)[C@@]3(C)C(=O)[C@H](OC(C)=O)C(=C1C)C2(C)C`, the Ratio ED50 in the experiment filed under Bos taurus [1] was 1.05; in the experiment listed under Bos taurus [2] it was 1.11. Also, the figures for the ED50 in the experiment listed under Bos taurus [3] and in the experiment filed under Bos taurus [4] were 0.85 µM and 0.95 µM, respectively.

On to `CCCC(=O)N[C@@H](c1ccccc1)[C@@H](O)C(=O)O[C@H]1C[C@@]2(O)[C@@H](OC(=O)c3ccccc3)[C@@H]3[C@]4(OC(C)=O)CO[C@@H]4C[C@H](O)[C@@]3(C)C(=O)[C@H](OC(C)=O)C(=C1C)C2(C)C`, for which the Ratio ED50 in the experiment listed under Bos taurus [1] was determined as 2.04. In the experiment listed under Bos taurus [3], the ED50 turned out to be 2.35 µM.

On to `CCCCCC(=O)N(C)[C@@H](c1ccccc1)[C@@H](O)C(=O)O[C@H]1C[C@@]2(O)[C@@H](OC(=O)c3ccccc3)[C@@H]3[C@]4(OC(C)=O)CO[C@@H]4C[C@H](O)[C@@]3(C)C(=O)[C@H](OC(C)=O)C(=C1C)C2(C)C`, for which the Ratio ED50 in the experiment listed under Bos taurus [1] stood at 1.66. Also, the ED50 in the experiment filed under Bos taurus [3] was 1.91 µM.

In the case of `CCCCCC(=O)N[C@@H](c1ccccc1)[C@@H](O)C(=O)O[C@H]1C[C@@]2(O)[C@@H](OC(=O)c3ccccc3)[C@@H]3[C@]4(OC(C)=O)CO[C@@H]4C[C@H](O)[C@@]3(C)C(=O)[C@H](O)C(=C1C)C2(C)C`, the Ratio ED50 in the experiment filed under Bos taurus [1] came to 2.57. For the same compound, the ED50 in the experiment listed under Bos taurus [3] is 2.96 µM.

Usually GI50 stands for the concentration at which growth is held to half of that of the control. Low readings indicate greater sensitivity of the cells, high ones lower sensitivity of the cells. As usually defined, the TGI is the concentration giving total growth inhibition. Lower therefore signals more potent growth arrest. With `CC(=O)O[C@H]1C(=O)[C@@]2(C)[C@H]([C@H](OC(=O)c3ccccc3)[C@]3(O)C[C@H](OC(=O)[C@H](O)[C@@H](NC(=O)c4ccccc4)c4ccccc4)C(C)=C1C3(C)C)[C@]1(OC(C)=O)CO[C@@H]1C[C@@H]2O` [PACLITAXEL], the GI50 in the experiment with SF-539 was determined as 0.00366 µM; with SNB-75, 0.00808 µM; with HOP-62, 0.0671 µM; with NCI-H460 it was 0.0219 µM; in the experiment with COLO 205, 0.00176 µM; in the experiment with DMS-114 it was 0.0123 µM. In the experiment with OVCAR-3, this compound showed a GI50 of 0.0197 µM. Also, the TGI in the experiment on SF-539 was 0.0899 µM; with SNB-75 it was 0.0773 µM; with HOP-62, above 1 µM; in the experiment with NCI-H460, above 1 µM; in the experiment with COLO 205, 0.0432 µM; in the experiment with DMS-114, 0.0612 µM. In the experiment with OVCAR-3, the TGI turned out to be 0.0487 µM. Further, the CC50 with SF-539 (read-out: LC50 (the source's name)) is above 25 µM; with SNB-75 it was above 1 µM; in the experiment on COLO 205, 0.145 µM; in the experiment with DMS-114, above 1 µM. In addition, the ED50 in the experiment listed under Bos taurus [3] amounted to 0.95 µM; in the experiment filed under Bos taurus [4] it was 0.76 µM.

By LC50 is commonly meant the concentration lethal to half of the exposed cells or organisms. A lower LC50 goes with greater toxicity. `CCCCCC(=O)N[C@@H](c1ccccc1)[C@@H](O)C(=O)O[C@H]1C[C@@]2(O)[C@@H](OC(=O)c3ccccc3)[C@@H]3[C@]4(OC(C)=O)CO[C@@H]4C[C@H](O)[C@@]3(C)C(=O)[C@H](OC(C)=O)C(=C1C)C2(C)C` [TAXOL C]: the GI50 in the experiment with SF-539, in the experiment with SNB-75, with HOP-62, in the experiment with NCI-H460, with COLO 205 and in the experiment with DMS-114 was below 0.01 µM throughout. Also, the GI50 in the experiment on OVCAR-3 was below 0.01 µM. Besides, the TGI in the experiment with SF-539 is below 0.01 µM; with SNB-75, 0.0192 µM; in the experiment with HOP-62, 0.0121 µM; in the experiment on NCI-H460, 0.349 µM; with COLO 205, 0.0229 µM; with DMS-114 it was 0.0238 µM. This compound also had a TGI with OVCAR-3 below 0.01 µM. Also, the Ratio ED50 in the experiment listed under Bos taurus [1] worked out at 1.05; in the experiment filed under Bos taurus [2], 1.82. Also, the CC50 in the experiment with SNB-75 was above 100 µM; in the experiment on COLO 205, 23.3 µM; in the experiment with DMS-114, 21.7 µM. Moreover, the ED50 in the experiment filed under Bos taurus [3] is 1 µM; in the experiment listed under Bos taurus [4], 1.4 µM. The compound also came in with an LC50 (concentration killing 50% of cells) in the experiment on HOP-62 of 32 µM. The LC50 is 69.8 µM in the experiment with NCI-H460 and above 100 µM with OVCAR-3.
